# According to ChEMBL document CHEMBL3045041, “Synthesis of novel aryl(4-substituted pyridin-3-yl)methyl carbamates and their herbicidal activity” (J Pestic Sci, 2012):
# Assays:
# [1] = tested on: Schoenoplectiella juncoides; test: Herbicidal activity against Schoenoplectiella juncoides under greenhouse condition compound treated at 0.5 leaf stage measured after 14 to 20 days; assay type: functional
# Oryza sativa [2] = test: Phytotoxicity against Oryza sativa cv. Kinuhikari (rice) planted at 3 cm depth measured after 20 to 25 days; assay type: organism-based; conditions: in vivo
# Echinochloa oryzicola [3] = test: Herbicidal activity against Echinochloa oryzicola under greenhouse condition compound treated at emergence stage measured after 14 to 20 days; assay type: functional
# Lindernia procumbens [4] = test: Herbicidal activity against Lindernia procumbens at 200 g a.i/ha treated at 2.3-leaf stage measured after 26 days by outdoor concrete pot test; assay type: functional
# Elatine triandra [5] = test: Herbicidal activity against Elatine triandra at 200 g a.i/ha treated at 2.3-leaf stage measured after 26 days by outdoor concrete pot test; assay type: functional
# Echinochloa oryzicola [6] = test: Herbicidal activity against Echinochloa oryzicola compound treated at 2.5-leaf stage measured after 26 days by outdoor concrete pot test; assay type: functional
# [7] = tested on: Schoenoplectiella juncoides; test: Herbicidal activity against Schoenoplectiella juncoides at 200 g a.i/ha treated at 1.6-leaf stage measured after 26 days by outdoor concrete pot test; assay type: functional
# Oryza sativa [8] = test: Phytotoxicity against Oryza sativa cv. Kinuhikari (rice) at 200 g a.i/ha treated at 1.6-leaf stage measured after 26 days by outdoor concrete pot test; assay type: organism-based; conditions: in vivo, other, 624 h
# [9] = tested on: Schoenoplectiella juncoides; test: Herbicidal activity against Schoenoplectiella juncoides at 300 g a.i/ha treated at 2.3-leaf stage measured after 26 days by outdoor concrete pot test; assay type: functional
# [10] = tested on: Schoenoplectiella juncoides; test: Herbicidal activity against Schoenoplectiella juncoides at 100 g a.i/ha treated at emergence stage measured after 26 days by outdoor concrete pot test; assay type: functional
# Oryza sativa [11] = test: Phytotoxicity against Oryza sativa cv. Kinuhikari (rice) at 300 g a.i/ha treated at 2.3-leaf stage measured after 26 days by outdoor concrete pot test; assay type: organism-based; conditions: in vivo, other, 624 h
# Elatine triandra [12] = test: Herbicidal activity against Elatine triandra at 100 g a.i/ha treated at emergence stage measured after 26 days by outdoor concrete pot test; assay type: functional
# Rotala indica [13] = test: Herbicidal activity against Rotala indica at 300 g a.i/ha treated at 2.3-leaf stage measured after 26 days by outdoor concrete pot test; assay type: functional
# Echinochloa oryzicola [14] = test: Herbicidal activity against Echinochloa oryzicola compound treated at emergence stage measured after 26 days by outdoor concrete pot test; assay type: functional
# Echinochloa oryzicola [15] = test: Herbicidal activity against Echinochloa oryzicola at 100 g a.i/ha treated at emergence stage measured after 26 days by outdoor concrete pot test; assay type: functional
# Lindernia procumbens [16] = test: Herbicidal activity against Lindernia procumbens compound treated at 1 to 2.2-leaf stage measured after 26 days by outdoor concrete pot test; assay type: functional
# Pontederia vaginalis [17] = test: Herbicidal activity against Monochoria vaginalis at 200 g a.i/ha treated at 1.6-leaf stage measured after 26 days by outdoor concrete pot test; assay type: functional
# Echinochloa oryzicola [18] = test: Herbicidal activity against Echinochloa oryzicola at 200 g a.i/ha treated at 1.6-leaf stage measured after 26 days by outdoor concrete pot test; assay type: functional
# Elatine triandra [19] = test: Herbicidal activity against Elatine triandra at 200 g a.i/ha treated at 1.6-leaf stage measured after 26 days by outdoor concrete pot test; assay type: functional
# Elatine triandra [20] = test: Herbicidal activity against Elatine triandra at 300 g a.i/ha treated at 2.3-leaf stage measured after 26 days by outdoor concrete pot test; assay type: functional
# Pontederia vaginalis [21] = test: Herbicidal activity against Monochoria vaginalis at 100 g a.i/ha treated at 1.6-leaf stage measured after 26 days by outdoor concrete pot test; assay type: functional
# Lindernia procumbens [22] = test: Herbicidal activity against Lindernia procumbens at 100 g a.i/ha treated at emergence stage measured after 26 days by outdoor concrete pot test; assay type: functional
# Lindernia procumbens [23] = test: Herbicidal activity against Lindernia procumbens at 300 g a.i/ha treated at 2.3-leaf stage measured after 26 days by outdoor concrete pot test; assay type: functional
# Lindernia procumbens [24] = test: Herbicidal activity against Lindernia procumbens at 200 g a.i/ha treated at emergence stage measured after 26 days by outdoor concrete pot test; assay type: functional
# Rotala indica [25] = test: Herbicidal activity against Rotala indica at 200 g a.i/ha treated at 2.3-leaf stage measured after 26 days by outdoor concrete pot test; assay type: functional
# Rotala indica [26] = test: Herbicidal activity against Rotala indica at 200 g a.i/ha treated at emergence stage measured after 26 days by outdoor concrete pot test; assay type: functional
# Elatine triandra [27] = test: Herbicidal activity against Elatine triandra at 200 g a.i/ha treated at emergence stage measured after 26 days by outdoor concrete pot test; assay type: functional
# Rotala indica [28] = test: Herbicidal activity against Rotala indica at 100 g a.i/ha treated at emergence stage measured after 26 days by outdoor concrete pot test; assay type: functional
# Rotala indica [29] = test: Herbicidal activity against Rotala indica at 100 g a.i/ha treated at 1.6-leaf stage measured after 26 days by outdoor concrete pot test; assay type: functional
# Echinochloa oryzicola [30] = test: Herbicidal activity against Echinochloa oryzicola under greenhouse condition compound treated at 2.5 leaf stage measured after 14 to 20 days; assay type: functional
# Elatine triandra [31] = test: Herbicidal activity against Elatine triandra compound treated at 1 to 2.2-leaf stage measured after 26 days by outdoor concrete pot test; assay type: functional
# Echinochloa oryzicola [32] = test: Herbicidal activity against Echinochloa oryzicola at 200 g a.i/ha treated at 2.3-leaf stage measured after 26 days by outdoor concrete pot test; assay type: functional
# Oryza sativa [33] = test: Phytotoxicity against Oryza sativa cv. Kinuhikari (rice) at 200 g a.i/ha treated at emergence stage measured after 26 days by outdoor concrete pot test; assay type: organism-based; conditions: in vivo, other, 624 h
# Rotala indica [34] = test: Herbicidal activity against Rotala indica at 200 g a.i/ha treated at 1.6-leaf stage measured after 26 days by outdoor concrete pot test; assay type: functional
# Oryza sativa [35] = test: Phytotoxicity against Oryza sativa cv. Kinuhikari (rice) planted at 3 cm depth measured after 26 days; assay type: organism-based; conditions: in vivo, 624 h
# Echinochloa oryzicola [36] = test: Herbicidal activity against Echinochloa oryzicola at 300 g a.i/ha treated at 2.3-leaf stage measured after 26 days by outdoor concrete pot test; assay type: functional
# Oryza sativa [37] = test: Phytotoxicity against Oryza sativa cv. Kinuhikari (rice) at 200 g a.i/ha treated at 2.3-leaf stage measured after 26 days by outdoor concrete pot test; assay type: organism-based; conditions: in vivo, other, 624 h
# Pontederia vaginalis [38] = test: Herbicidal activity against Monochoria vaginalis at 300 g a.i/ha treated at 2.3-leaf stage measured after 26 days by outdoor concrete pot test; assay type: functional
# Elatine triandra [39] = test: Herbicidal activity against Elatine triandra at 100 g a.i/ha treated at 1.6-leaf stage measured after 26 days by outdoor concrete pot test; assay type: functional
# Pontederia vaginalis [40] = test: Herbicidal activity against Monochoria vaginalis at 200 g a.i/ha treated at emergence stage measured after 26 days by outdoor concrete pot test; assay type: functional
# Lindernia procumbens [41] = test: Herbicidal activity against Lindernia procumbens at 200 g a.i/ha treated at 1.6-leaf stage measured after 26 days by outdoor concrete pot test; assay type: functional
# [42] = tested on: Schoenoplectiella juncoides; test: Herbicidal activity against Schoenoplectiella juncoides compound treated at 0.5-leaf stage measured after 26 days by outdoor concrete pot test; assay type: functional
# Pontederia vaginalis [43] = test: Herbicidal activity against Monochoria vaginalis at 100 g a.i/ha treated at emergence stage measured after 26 days by outdoor concrete pot test; assay type: functional
# Echinochloa oryzicola [44] = test: Herbicidal activity against Echinochloa oryzicola at 200 g a.i/ha treated at emergence stage measured after 26 days by outdoor concrete pot test; assay type: functional
# Pontederia vaginalis [45] = test: Herbicidal activity against Monochoria vaginalis at 200 g a.i/ha treated at 2.3-leaf stage measured after 26 days by outdoor concrete pot test; assay type: functional
# [46] = tested on: Schoenoplectiella juncoides; test: Herbicidal activity against Schoenoplectiella juncoides at 200 g a.i/ha treated at 2.3-leaf stage measured after 26 days by outdoor concrete pot test; assay type: functional
# Oryza sativa [47] = test: Phytotoxicity against Oryza sativa cv. Kinuhikari (rice) at 100 g a.i/ha treated at emergence stage measured after 26 days by outdoor concrete pot test; assay type: organism-based; conditions: in vivo, other, 624 h
# [48] = tested on: Schoenoplectiella juncoides; test: Herbicidal activity against Schoenoplectiella juncoides at 200 g a.i/ha treated at emergence stage measured after 26 days by outdoor concrete pot test; assay type: functional
# Rotala indica [49] = test: Herbicidal activity against Rotala indica compound treated at 1 to 2.2-leaf stage measured after 26 days by outdoor concrete pot test; assay type: functional
# Echinochloa oryzicola [50] = test: Herbicidal activity against Echinochloa oryzicola at 100 g a.i/ha treated at 1.6-leaf stage measured after 26 days by outdoor concrete pot test; assay type: functional
# Oryza sativa [51] = test: Phytotoxicity against Oryza sativa cv. Kinuhikari (rice) at 100 g a.i/ha treated at 1.6-leaf stage measured after 26 days by outdoor concrete pot test; assay type: organism-based; conditions: in vivo, other, 624 h
# [52] = tested on: Schoenoplectiella juncoides; test: Herbicidal activity against Schoenoplectiella juncoides at 100 g a.i/ha treated at 1.6-leaf stage measured after 26 days by outdoor concrete pot test; assay type: functional
# Lindernia procumbens [53] = test: Herbicidal activity against Lindernia procumbens at 100 g a.i/ha treated at 1.6-leaf stage measured after 26 days by outdoor concrete pot test; assay type: functional
# Pontederia vaginalis [54] = test: Herbicidal activity against Monochoria vaginalis compound treated at 1.5-leaf stage measured after 26 days by outdoor concrete pot test; assay type: functional
# [55] = tested on: Schoenoplectiella juncoides; test: Herbicidal activity against Schoenoplectiella juncoides at 300 g a.i/ha treated at 1.6-leaf stage measured after 26 days by outdoor concrete pot test; assay type: functional
# Echinochloa oryzicola [56] = test: Herbicidal activity against Echinochloa oryzicola at 300 g a.i/ha treated at 1.6-leaf stage measured after 26 days by outdoor concrete pot test; assay type: functional
# Elatine triandra [57] = test: Herbicidal activity against Elatine triandra at 300 g a.i/ha treated at 1.6-leaf stage measured after 26 days by outdoor concrete pot test; assay type: functional
# Pontederia vaginalis [58] = test: Herbicidal activity against Monochoria vaginalis at 300 g a.i/ha treated at 1.6-leaf stage measured after 26 days by outdoor concrete pot test; assay type: functional
# Rotala indica [59] = test: Herbicidal activity against Rotala indica at 300 g a.i/ha treated at 1.6-leaf stage measured after 26 days by outdoor concrete pot test; assay type: functional
# Lindernia procumbens [60] = test: Herbicidal activity against Lindernia procumbens at 300 g a.i/ha treated at 1.6-leaf stage measured after 26 days by outdoor concrete pot test; assay type: functional
smiles,measurement,setting,value
CN(C)C(=O)OC(c1cnccc1C(F)(F)F)c1cnccc1C(F)(F)F,ED80,[1],63 gAi/ha
same,ED20,Oryza sativa [2],< 250 gAi/ha
same,ED80,Echinochloa oryzicola [3],63 gAi/ha
CN(C)C(=O)OC(c1cnccc1C(F)(F)F)c1cccc2ccccc12 (racemic),Efficacy,Lindernia procumbens [4],100%
same,Efficacy,Elatine triandra [5],100%
same,ED80,Echinochloa oryzicola [6],125 gAi/ha
same,Efficacy,[7],0%
same,Efficacy,Oryza sativa [8],0%
same,Efficacy,[9],0%
same,Efficacy,[10],0%
same,Efficacy,Oryza sativa [11],6%
same,Efficacy,Elatine triandra [12],100%
same,Efficacy,Rotala indica [13],100%
same,ED80,Echinochloa oryzicola [14],31 gAi/ha
same,Efficacy,Echinochloa oryzicola [15],100%
same,ED80,Lindernia procumbens [16],100 gAi/ha
same,Efficacy,Pontederia vaginalis [17],100%
same,Efficacy,Echinochloa oryzicola [18],95%
same,Efficacy,Elatine triandra [19],100%
same,Efficacy,Elatine triandra [20],100%
same,Efficacy,Pontederia vaginalis [21],89%
same,Efficacy,Lindernia procumbens [22],100%
same,Efficacy,Lindernia procumbens [23],100%
same,Efficacy,Lindernia procumbens [24],100%
same,ED80,[1],250 gAi/ha
same,Efficacy,Rotala indica [25],100%
same,Efficacy,Rotala indica [26],100%
same,Efficacy,Elatine triandra [27],100%
same,Efficacy,Rotala indica [28],100%
same,Efficacy,Rotala indica [29],100%
same,ED80,Echinochloa oryzicola [30],125 gAi/ha
same,ED80,Elatine triandra [31],100 gAi/ha
same,Efficacy,Echinochloa oryzicola [32],95%
same,Efficacy,Oryza sativa [33],16%
same,Efficacy,Rotala indica [34],100%
same,ED20,Oryza sativa [35],2000 gAi/ha
same,Efficacy,Echinochloa oryzicola [36],95%
same,Efficacy,Oryza sativa [37],0%
same,Efficacy,Pontederia vaginalis [38],100%
same,ED20,Oryza sativa [2],2000 gAi/ha
same,Efficacy,Elatine triandra [39],100%
same,Efficacy,Pontederia vaginalis [40],100%
same,Efficacy,Lindernia procumbens [41],100%
same,ED80,[42],250 gAi/ha
same,Efficacy,Pontederia vaginalis [43],100%
same,Efficacy,Echinochloa oryzicola [44],100%
same,Efficacy,Pontederia vaginalis [45],99%
same,ED80,Echinochloa oryzicola [3],31 gAi/ha
same,Efficacy,[46],0%
same,Efficacy,Oryza sativa [47],11%
same,Efficacy,[48],0%
same,ED80,Rotala indica [49],100 gAi/ha
same,Efficacy,Echinochloa oryzicola [50],95%
same,Efficacy,Oryza sativa [51],0%
same,Efficacy,[52],0%
same,Efficacy,Lindernia procumbens [53],100%
"CN(C)C(=O)OC(c1cnccc1C(F)(F)F)c1cccc2ccccc12 (single isomer, unassigned; (+))",ED80,Echinochloa oryzicola [14],125 gAi/ha
same,ED20,Oryza sativa [35],1000 gAi/ha
same,ED80,[42],>500 gAi/ha
"CN(C)C(=O)OC(c1cnccc1C(F)(F)F)c1cccc2ccccc12 (single isomer, unassigned; (-))",ED80,Echinochloa oryzicola [6],<63 gAi/ha
same,ED80,Pontederia vaginalis [54],<100 gAi/ha
same,ED80,Echinochloa oryzicola [14],<31 gAi/ha
same,ED80,Lindernia procumbens [16],<63 gAi/ha
same,ED80,Elatine triandra [31],<63 gAi/ha
same,ED20,Oryza sativa [35],500 gAi/ha
same,ED80,[42],125 gAi/ha
same,ED80,Rotala indica [49],<63 gAi/ha
CCN(CC)C(=O)n1cnc(S(=O)(=O)c2c(C)cc(C)cc2C)n1 [CAFENSTROLE],Efficacy,[9],0%
same,Efficacy,Oryza sativa [11],0%
same,Efficacy,Rotala indica [13],99%
same,Efficacy,[55],0%
same,Efficacy,Elatine triandra [20],99%
same,Efficacy,Echinochloa oryzicola [56],100%
same,Efficacy,Lindernia procumbens [23],99%
same,Efficacy,Elatine triandra [57],100%
same,Efficacy,Echinochloa oryzicola [36],95%
same,Efficacy,Pontederia vaginalis [38],0%
same,Efficacy,Pontederia vaginalis [58],50%
same,Efficacy,Rotala indica [59],100%
same,Efficacy,Lindernia procumbens [60],100%
